According to patent US11311506B2, “Controlling biofilms with cyclopropanated fatty acids” (THE UNIVERSITY OF MEMPHIS RESEARCH FOUNDATION, priority 2018, dated 2022):
Each block holds one compound with its values, some of them ahead of it.

Experiments:
[1] = tested on: P. aeruginosa (PA-ATCC 27317); test: Synergy checkerboard assay, biofilm inhibition (P. aeruginosa); format: cell-based; conditions: for FICI / Interpretation: antibiotic combined with 2-CP; for MIC for antibiotic (combined): combined with 2-CP
Procedure: (§1) Synergy assays were performed to determine the effects of 2-CP when used in combination with various antimicrobials against gram positive S. aureus and gram negative P. aeruginosa. […] Final antibiotic concentrations varied based on their respective minimum inhibitory concentration for each organism and are given in Table 1. […] Inhibition was defined as a lack of visible growth after a 24 hr incubation period. The fractional inhibitory concentration index (FICI) was used to determine synergistic, additive, or antagonistic responses between the three antibiotics and 2-CP.

[2] = tested on: Staphylococcus aureus biofilm; test: Biofilm eradication with antibiotics, MBEC Biofilm Inoculator plate, turbidity at 540 nm (Example 3); format: cell-based; conditions: 24 h
Procedure: Overnight cultures of Staphylococcus aureus were prepared by inoculating 2 mL of TSB followed by incubation overnight at 37° C. The following day, 1 mL of this stock was diluted in 10 mL of TSB. A total of 150 μL of the diluted stock was seeded into each well of a 96-well MBECTM Biofilm Inoculator plate, followed by incubation overnight to allow biofilm growth. All media and planktonic bacteria were then aspirated from each well thus allowing the biofilm to remain both on the bottom of each well and on the pegs on the top of the plate. […] The plates were incubated for 24 hours at 37° C. Following incubation, the pegs were removed and added to new plates containing 150 μL of sterile TSB in each well. Plates and pegs were then sonicated for 5 minutes to remove any viable bacteria attached to the pegs, followed by incubation for 24 hours. Turbidity was determined via absorbance at 540 nm to access bacterial growth in the presence of fixed concentration of antibiotics and varying concentrations of […] and 2-CP. In this assay, the live bacteria that remained attached to the pegs grew overnight and increased turbidity.

[3] = tested on: Pseudomonas aeruginosa (ATCC 27317) biofilm; test: Biofilm eradication with antibiotics, MBEC plate (Example 8, P. aeruginosa); format: cell-based; conditions: for FICI / Interpretation: P. aeruginosa eradication, antibiotic combined with 2-CP; for FICI: 4000 μg/mL used for 2-CP alone; for MEC for antibiotic (combined): combined with 2-CP
Procedure: (§2) Staphylococcus aureus (UAMS1) was grown overnight in TSB by incubation at 37° C. Pseudomonas aeruginosa (ATCC 27317) was grown overnight in a similar manner. S. aureus was diluted 1:10 in TSB and P. aeruginosa was diluted 1:50. Bacterial dilutions were added at a volume of 150 μL into each well of a 96-well MBEC′ Biofilm Inoculator plate, followed by overnight incubation to form the biofilm. The next day the medium from each well was carefully aspirated allowing the biofilm to remain both on the pegs of the top plate and the bottom of the wells. […] These plates were incubated at 37° C. for 24 hours. The next day the peg plates (top plate) were removed and added to new plates containing 150 μL of sterile TSB in each well. Plates were sonicated for 5 minutes to remove the viable bacteria attached to the peg surface and later incubated for 24 hours. Turbidity was measured by reading absorbance at 540 nm for bacterial growth in the presence of fixed concentrations of the antibiotics with varying concentrations of 2-CP and C2DA.

[4] = tested on: Pseudomonas aeruginosa (ATCC 27317) biofilm; test: Biofilm dispersion measurements (Pseudomonas aeruginosa), Luciferase assay for ATP production; format: cell-based; conditions: 125 or 250 μg/mL, 24 h; FIG. 7
Procedure: Biofilm was formed using Pseudomonas aeruginosa (ATCC 27317) in a 96-well plate format. Each well of the plate was seeded with 150 μL of bacterial culture and incubated for 24 hours. […] The plate was then incubated for 24 hours and the medium was aspirated and the plate washed several times.
(§3) The relative percentage of attached cells as compared to non-treated controls was assessed using a Luciferase assay for ATP production.

[5] = tested on: Staphylococcus aureus biofilm; test: Biofilm dispersion measurements (Staphylococcus aureus), Luciferase assay for ATP production; format: cell-based; conditions: 500 μg/mL; preformed 7-day S. aureus biofilm; FIG. 1
Procedure: Biofilm was formed using Staphylococcus aureus in a 96-well plate format. Each well of the plate was seeded with 150 μL of bacterial culture and incubated for 24 hours to allow for biofilm growth. The medium in each well was changed every 24 hours for 5 days and every 12 hours for two additional days. On day 7, 135 μL of Tryptic Soy Broth (TSB) and 15 μL of C2DA, T2DA, or 2-CP were added to yield final concentrations of each test compound ranging from 0 to 1000 μg/mL. The plate was then incubated for one hour and the turbidity of each solution was determined at 540 nm. Bacterial growths were then aspirated from all wells and the plates were washed several times with water.
as §3

[6] = tested on: Staphylococcus aureus (UAMS1) biofilm; test: Biofilm eradication with antibiotics, MBEC plate (Example 8, S. aureus); format: cell-based
Procedure: as §2

S. aureus (UAMS-1) = test: Synergy checkerboard assay, biofilm inhibition (S. aureus); format: cell-based; conditions: for MIC for antibiotic (combined): combined with 2-CP
Procedure: as §1

[7] = tested on: Mouse fibroblast cells (NIH3T3); test: Cytocompatibility, CellTiter Glow cell viability; format: cell-based
Procedure: Mouse fibroblast cells (NIH3T3) were seeded (1×10^4 cells/cm^2) in 24-well plates in Dulbecco's Modified Eagle's Medium (DMEM) supplemented with 10% fetal bovine serum and 100 μg/mL Normocin for 24 hours at 37° C. and 5% CO2. Concentrations of C2DA, T2DA, and 2-CP ranging from 0 to 1000 μg/mL were added to various wells. The plate was incubated for 24 hours and cell viability was measured using CellTiter Glow.

bacterial growth = conditions: background statement; cited from earlier work
biofilm formation = conditions: background statement; cited from earlier work

MIC ([1]; Pseudomonas aeruginosa, ATCC27317, 24 hr, read-out: MIC for 2-CP (alone)): 4000 µg/mL | MIC for 2-CP (combined) ([1]; combined with Levofloxacin): 1000 µg/mL | MIC for 2-CP (combined) ([1]; combined with Tetracycline): 1000 µg/mL | MIC for 2-CP (combined) ([1]; combined with Tobramycin): 31 µg/mL | MIC (S. aureus (UAMS-1); Staphylococcus aureus, 24 hr, read-out: MIC for 2-CP (alone)): 4000 µg/mL | MIC for 2-CP (combined) (S. aureus (UAMS-1); combined with Levofloxacin): 500 µg/mL | MIC for 2-CP (combined) (S. aureus (UAMS-1); combined with Tetracycline): 62.5 µg/mL | MIC for 2-CP (combined) (S. aureus (UAMS-1); combined with Tobramycin): 31 µg/mL
Compound: CCCCCCCC1CC1C(=O)O (stereo not drawn) [2-CP, cis-2-heptylcyclopropanyl-1-carboxylic acid]
concentration inhibiting growth ([1]; 2-CP alone): 4 mg/mL | turbidity (absorbance at 540 nm) of bacteria surviving on pegs ([2]; increasing concentration of 2-CP (0-500 μg/mL) with fixed […] tobramycin, FIG. 2): significantly lower | biofilm eradication in combination with tetracycline ([2]; with tetracycline at […], fatty acid 0-500 μg/mL, FIG. 3): eradicated the biofilm at lower concentrations than C2DA | MEC for 2-CP (alone) ([3]; P. aeruginosa biofilm eradication): >4000 | biofilm eradication by the substance alone ([3]; P. aeruginosa, alone): did not eradicate biofilm at any concentration tested | MEC for 2-CP (combined) ([3]; P. aeruginosa, combined with Levofloxacin): 250 | MEC for 2-CP (combined) ([3]; P. aeruginosa, combined with Tobramycin): 250 | ability to disperse biofilm (relative percentage of attached cells) [4]: increased ability to disperse biofilm as compared to T2DA and controls | ability to disperse biofilm (percentage of dispersed cells) [5]: increased ability to disperse biofilm as compared to its unsaturated fatty acid analog, C2DA | MEC for 2-CP (alone) ([6]; S. aureus biofilm eradication): >4000 | biofilm eradication by the substance alone ([6]; S. aureus, alone): did not eradicate biofilm at any concentration tested | MEC for 2-CP (combined) ([6]; S. aureus, combined with Tetracycline): 125 | MEC for 2-CP (combined) ([6]; S. aureus, combined with Tobramycin): 31.25 | concentration inhibiting growth (S. aureus (UAMS-1); 2-CP alone): 4 mg/mL | cytocompatibility (percentage of viable cells vs PBS control) ([7]; NIH3T3, 0 to 1000 μg/mL, 24 h, FIG. 4): cytocompatibility equal to C2DA | concentration exhibiting significant cytotoxicity toward mammalian cells ([7]; NIH3T3, 24 h): 1000 µg/mL

Compound: CCCCCCC/C=C\C(=O)O [C2DA, cis-2-decenoic acid]
concentration that may inhibit bacterial growth (bacterial growth): 500 µg/mL | concentration capable of inhibiting biofilm formation (biofilm formation): 125 µg/mL

MIC for antibiotic (alone) [1]: 1 µg/mL | MIC for antibiotic (combined) [1]: 0.5 µg/mL | MIC for antibiotic (alone) (S. aureus (UAMS-1)): 1 µg/mL | MIC for antibiotic (combined) (S. aureus (UAMS-1)): 0.25 µg/mL
Compound: C[C@H]1COc2c(N3CCN(C)CC3)c(F)cc3c(=O)c(C(=O)O)cn1c23 [Levofloxacin]
FICI [1]: 0.8 | MEC for antibiotic (alone) ([3]; P. aeruginosa): 0.3 µg/mL | FICI [3]: 0.33 | MEC for antibiotic (combined) ([3]; P. aeruginosa): 0.08 µg/mL | FICI (S. aureus (UAMS-1); antibiotic combined with 2-CP): 0.4

Compound: CN(C)[C@@H]1C(O)=C(C(N)=O)C(=O)[C@@]2(O)C(O)=C3C(=O)c4c(O)cccc4[C@@](C)(O)[C@H]3C[C@@H]12 [Tetracycline]
MIC for antibiotic (alone) [1]: 32 µg/mL | FICI [1]: 0.8 | MIC for antibiotic (combined) [1]: 16 µg/mL | MIC for antibiotic (alone) (S. aureus (UAMS-1)): 1 µg/mL | MIC for antibiotic (combined) (S. aureus (UAMS-1)): 0.5 µg/mL

MIC for antibiotic (alone) [1]: 0.5 µg/mL | MIC for antibiotic (combined) [1]: 0.25 µg/mL | MIC for antibiotic (alone) (S. aureus (UAMS-1)): 4 µg/mL | MIC for antibiotic (combined) (S. aureus (UAMS-1)): 2 µg/mL
Compound: NC[C@H]1O[C@H](O[C@H]2[C@H](O)[C@@H](O[C@H]3O[C@H](CO)[C@@H](O)[C@H](N)[C@H]3O)[C@H](N)C[C@@H]2N)[C@H](N)C[C@@H]1O [Tobramycin]
FICI [1]: 0.5 | Interpretation [1]: Syner- | Interpretation ([1]; listed as tobramycin): synergistic | MEC for antibiotic (alone) ([3]; P. aeruginosa): 0.5 µg/mL | Interpretation [3]: Additive | FICI [3]: 0.5625 | Interpretation ([3]; listed as tobramycin): additive | MEC for antibiotic (combined) ([3]; P. aeruginosa): 0.25 µg/mL | MEC for antibiotic (alone) ([6]; S. aureus): 2.5 µg/mL | Interpretation ([6]; S. aureus eradication, antibiotic combined with 2-CP): Additive | FICI ([6]; S. aureus eradication, antibiotic combined with 2-CP, 4000 μg/mL used for 2-CP alone): 0.51 | Interpretation ([6]; S. aureus eradication, antibiotic combined with 2-CP, listed as tobramycin): additive | MEC for antibiotic (combined) ([6]; S. aureus, combined with 2-CP): 1.25 µg/mL | FICI (S. aureus (UAMS-1); antibiotic combined with 2-CP): 0.5 | Interpretation (S. aureus (UAMS-1); antibiotic combined with 2-CP): synergistic
